The results in this text go back to patent US20260166039A1 (SCHRÖDINGER, INC., priority 2022, published 2026).

One may read the IC50 as the concentration that inhibits the measured activity by half.

Like-named read-outs stand apart in the source and are kept apart here.

One test has as its target T1, Wee1 kinase domain (Homo sapiens, UniProt P30291).
T1 construct: Wee1 kinase domain was purchased from Carna (catalog #05-177); purchased Carna 05-177
Briefly: Wee1 Kinase Biochemical Assay (ADP-Glo). The settings on record: 15 uM ATP. In a few lines:
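Kinase domain (1 nM) incubated 4 h at 25 °C with 15 uM ATP and 2 ng/mL Poly(Lys,Tyr 4:1) in 40 mM Tris-HCl, 20 mM MgCl2, 0.1 mg/mL BSA, 2 mM DTT. ADP formation read by ADP-Glo luminescence; percent inhibition normalized to DMSO and saturating reference-inhibitor controls.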
In general terms: ADP-Glo turns the ADP formed in a reaction into a luminescent signal.

Test [1] deals with phosphorylation of Cdc2 Y15 (Wee1 substrate) in A427 cells. Briefly: Phosphorylated Cdc2 MSD Electrochemiluminescence Assay. The class given is cell-based. The conditions noted are these: Homo sapiens. In a few lines:
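A427 cells (RPMI 1640, 10% FBS) treated 20 h after plating with 3-fold serial compound dilutions, in duplicate, 37 °C, 5% CO2; total incubation 6 h. Lysate Cdc2 pY15 read by MSD electrochemiluminescence sandwich immunoassay; % remaining signal normalised to DMSO (high) and reference Wee1 inhibitor (low) controls.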

The mark [2] stands for this setting: class symbols, 1 nM Wee1 enzyme, 4 hours at 25° C.
The mark [3] stands for this setting: A-427, class symbols, read-out: A427 pCDC2 MSD IC50.

T1 sequence (P30291 299-569 limits assumed): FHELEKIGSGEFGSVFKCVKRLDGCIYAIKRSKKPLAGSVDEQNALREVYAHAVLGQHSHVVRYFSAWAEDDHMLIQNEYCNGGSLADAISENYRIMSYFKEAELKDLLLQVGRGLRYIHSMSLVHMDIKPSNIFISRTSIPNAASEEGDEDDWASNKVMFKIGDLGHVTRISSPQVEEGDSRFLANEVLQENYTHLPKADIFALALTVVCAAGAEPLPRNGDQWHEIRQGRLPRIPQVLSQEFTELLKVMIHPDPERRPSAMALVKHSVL

For the molecule `C[C@H]1COC(=O)N1c1cccc(N2c3nc(Nc4ccc(C5CCN(C)CC5)nc4)ncc3[C@@]3(C)COC(C)(C)C[C@@H]23)n1` (single isomer, unassigned) [Example 297], the IC50 against Wee1 kinase domain (Wee1 kinase domain, ADP-Glo) was below 10 nM; in test [1] (A-427, pCDC2 MSD) it was 100 to 1000 nM.
Consider `CC1(C)C[C@H]2N(c3cccc(N=S(C)(C)=O)n3)c3nc(Nc4ccn5ccnc5c4)ncc3[C@@]2(C)CO1` (single isomer, unassigned) [Example 379], for which the IC50 is below 10 nM at Wee1 kinase domain (Wee1 kinase domain, ADP-Glo) and 100 to 1000 nM in test [1] (A-427, pCDC2 MSD).
On the same counts, the results for `Cc1cc(Nc2ncc3c(n2)N(c2cccc(N4C(=O)OC[C@@H]4C)n2)[C@@H]2CC(C)(C)OC[C@]32C)ccc1N1C[C@@H]2C[C@H]1CN2C` (single isomer, unassigned) [Example 295] are below 10 nM and 100 to 1000 nM.
On to `CN1CCN(c2ccc(Nc3ncc4c(n3)N(c3ccn(C5COC5)n3)[C@@H]3CC(C)(C)OC[C@]43C)cc2)CC1` (single isomer, unassigned) [Example 742], for which the half-maximal inhibitory concentration (IC50) was below 10 nM on Wee1 kinase domain (setting [2]) and 1000 to 10000 nM in test [1] (setting [3]).
Take `CN[C@@H]1CCN(c2ccc(Nc3ncc4c(n3)N(c3cccc(N5C(=O)OC[C@@H]5C)n3)[C@@H]3CC(C)(C)OC[C@]43C)cc2)C1` (single isomer, unassigned) [Example 319]: the IC50 against Wee1 kinase domain (Wee1 kinase domain, ADP-Glo) was below 10 nM; in test [1] (A-427, pCDC2 MSD), 100 to 1000 nM.
Regarding `CC1(C)C[C@H]2N(c3cccc(N4CCOC4=O)n3)c3nc(Nc4ccc([C@@H]5CNCC5(F)F)cc4)ncc3[C@@]2(C)CO1` [Example 680, 3-(6-((4bR,8aR)-2-((4-((R)-4,4-difluoropyrrolidin-3-yl)phenyl)amino)-4b,7,7-trimethyl-4b,7,8,8a-tetrahydropyrano[3′,4′:4,5]pyrrolo[2,3-d]pyrimidin-9(5H)-yl)pyridin-2-yl)oxazolidin-2-one], the results for the IC50 (against Wee1 kinase domain (setting [2]); in test [1] (setting [3])) were below 10 nM and 100 to 1000 nM, respectively.
On the same counts, the results for `CC1(C)C[C@H]2N(c3cccc(C4CCNCC4)n3)c3nc(Nc4ccc(N5CCOCC5)cc4)ncc3[C@@]2(C)CO1` (single isomer, unassigned) [Example 531] are below 10 nM and 100 to 1000 nM.
On to `CNCc1cccc(N2c3nc(Nc4ccc([C@@H]5CNC(=O)C5)cc4)ncc3[C@@]3(C)COC(C)(C)C[C@@H]23)n1` (single isomer, unassigned) [Example 63], for which the IC50 is below 10 nM against Wee1 kinase domain (Wee1 kinase domain, ADP-Glo) and 100 to 1000 nM in test [1] (A-427, pCDC2 MSD).
Turning to `CN1C[C@H]2C[C@@H]1CN2c1ccc(Nc2ncc3c(n2)N(c2cccc(C(C)(C)O)n2)[C@@H]2CC(C)(C)OC[C@]32C)cc1F` (single isomer, unassigned) [Example 427], the figures for the IC50 (against Wee1 kinase domain (setting [2]); in test [1] (setting [3])) were below 10 nM and 100 to 1000 nM, respectively.
For the molecule `C[C@H]1COC(=O)N1c1cccc(N2c3nc(Nc4ccc([C@H]5CCNC5)nc4)ncc3[C@@]3(C)COC(C)(C)C[C@@H]23)n1` (single isomer, unassigned) [Example 259], the IC50 against Wee1 kinase domain (Wee1 kinase domain, ADP-Glo) is below 10 nM; in test [1] (A-427, pCDC2 MSD) it was 100 to 1000 nM.
With `CC1(C)C[C@H]2N(c3cccc(N=S(C)(C)=O)n3)c3nc(NC(=O)[C@H]4C[C@@H]4C4CCOCC4)ncc3[C@@]2(C)CO1` (single isomer, unassigned) [Example 411], the IC50 against Wee1 kinase domain (setting [2]) was below 10 nM; in test [1] (setting [3]), 1000 to 10000 nM.
Taken in the same sequence, the figures for `CN1CCN(c2ccc(Nc3ncc4c(n3)N(c3ccccn3)[C@@H]3CC(C)(C)OC[C@]43C)cc2)CC1` (single isomer, unassigned) [Example 722] were below 10 nM and 100 to 1000 nM.
Taken in the same sequence, the figures for `C[C@H]1CCC(=O)N1c1cccc(N2c3nc(Nc4cnn(C5CCN(C)CC5)c4)ncc3C3(C)COC(C)(C)CC23)n1` (stereo in doubt) [Example 556, (S)-5-methyl-1-(6-((4bR,8aR)-4b,7,7-trimethyl-2-((1-(1-methylpiperidin-4-yl)-1H-pyrazol-4-yl)amino)-4b,7,8,8a-tetrahydropyrano[3′,4′:4,5]pyrrolo[2,3-d]pyrimidin-9(5H)-yl)pyridin-2-yl)pyrrolidin-2-one] were below 10 nM and 100 to 1000 nM.
As for `Cc1cc(Nc2ncc3c(n2)N(c2cccc(N=S(C)(C)=O)n2)[C@@H]2CC(C)(C)OC[C@]32C)ccc1[C@@H]1COCCN1` (single isomer, unassigned) [Example 114], the IC50 at Wee1 kinase domain (Wee1 kinase domain, ADP-Glo) is below 10 nM; in test [1] (A-427, pCDC2 MSD), below 100 nM.
On to `CN1CC2(C1)CN(c1ccc(Nc3ncc4c(n3)N(c3cccc(N5CCOC5=O)n3)[C@@H]3CC(C)(C)OC[C@]43C)cc1)C2` [Example 707, 3-(6-((4bR,8aR)-4b,7,7-trimethyl-2-((4-(6-methyl-2,6-diazaspiro[3.3]heptan-2-yl)phenyl)amino)-4b,7,8,8a-tetrahydropyrano[3′,4′:4,5]pyrrolo[2,3-d]pyrimidin-9(5H)-yl)pyridin-2-yl)oxazolidin-2-one], for which the IC50 against Wee1 kinase domain (setting [2]) is below 10 nM; in test [1] (setting [3]), 100 to 1000 nM.
Taken in the same sequence, the figures for `CNCc1cccc(N2c3nc(Nc4ccc(-n5ccnc5)c(F)c4)ncc3[C@@]3(C)COC(C)(C)C[C@@H]23)n1` (single isomer, unassigned) [Example 466] were below 10 nM and 1000 to 10000 nM.
On to `CN1CCC(c2ccc(Nc3ncc4c(n3)N(c3cccc(N=S(C)(C)=O)c3)[C@@H]3CC(C)(C)OC[C@]43C)cn2)CC1` [Example 710, dimethyl((3-((4bR,8aR)-4b,7,7-trimethyl-2-((6-(1-methylpiperidin-4-yl)pyridin-3-yl)amino)-4b,7,8,8a-tetrahydropyrano[3′,4′:4,5]pyrrolo[2,3-d]pyrimidin-9(5H)-yl)phenyl)imino)-16-sulfanone], for which the values for the IC50 (on Wee1 kinase domain (setting [2]); in test [1] (setting [3])) were below 10 nM and 1000 to 10000 nM, respectively.
As to `COc1ccc(Nc2ncc3c(n2)N(c2cccc(N=S(C)(C)=O)n2)[C@@H]2CC(C)(C)OC[C@]32C)nn1` (single isomer, unassigned) [Example 372], the IC50 on Wee1 kinase domain (Wee1 kinase domain, ADP-Glo) was below 10 nM; in test [1] (A-427, pCDC2 MSD), 100 to 1000 nM.
For `CN1C[C@H]2C[C@@H]1CN2c1ccc(Nc2ncc3c(n2)N(c2cccc(C(C)(C)O)n2)[C@@H]2CC(C)(C)OC[C@]32C)cc1Cl` (single isomer, unassigned) [Example 433], the figures for the IC50 (against Wee1 kinase domain (setting [2]); in test [1] (setting [3])) were below 10 nM and 100 to 1000 nM, respectively.
On the same counts, the results for `CN1C[C@@H]2C[C@H]1CN2c1ccc(Nc2ncc3c(n2)N(c2cccc(C4(O)CC4)n2)[C@@H]2CC(C)(C)OC[C@]32C)cc1` [Example 644, 1-(6-((4bR,8aR)-4b,7,7-trimethyl-2-((4-((1S,4S)-5-methyl-2,5-diazabicyclo[2.2.1]heptan-2-yl)phenyl)amino)-4b,7,8,8a-tetrahydropyrano[3′,4′:4,5]pyrrolo[2,3-d]pyrimidin-9(5H)-yl)pyridin-2-yl)cyclopropan-1-ol] are below 10 nM and 100 to 1000 nM.
Consider `CC1(C)C[C@@H]2N(c3cccc(C(C)(C)O)n3)c3nc(Nc4ccc(O[C@@H]5CCNC5)cc4)ncc3[C@]2(C)CO1` (single isomer, unassigned) [Example 417], for which the IC50 is below 10 nM on Wee1 kinase domain (setting [2]) and below 100 nM in test [1] (setting [3]).
For `CNCc1cccc(N2c3nc(NC(=O)[C@@H]4C[C@H]4c4cccnc4)ncc3[C@@]3(C)COC(C)(C)C[C@@H]23)n1` [Example 768, (1R,2R)-2-(pyridin-3-yl)-N-((4bR,8aR)-4b,7,7-trimethyl-9-(6-((methylamino)methyl)pyridin-2-yl)-4b,5,7,8,8a,9-hexahydropyrano[3′,4′:4,5]pyrrolo[2,3-d]pyrimidin-2-yl)cyclopropane-1-carboxamide], the results for the IC50 (at Wee1 kinase domain (setting [2]); in test [1] (setting [3])) were below 10 nM and 100 to 1000 nM, respectively.
Taken in the same sequence, the figures for `CN1C[C@H]2C[C@@H]1CN2c1ccc(Nc2ncc3c(n2)N(c2cccc(C(C)(C)O)n2)[C@@H]2CC(C)(C)OC[C@]32C)cc1` (single isomer, unassigned) [Example 413] were below 10 nM and 100 to 1000 nM.
For `CNCc1cccc(N2c3nc(Nc4cnn(C)c4)ncc3[C@@]3(C)COC(C)(C)C[C@@H]23)n1` (single isomer, unassigned) [Example 472], the IC50 at Wee1 kinase domain (setting [2]) was below 10 nM; in test [1] (setting [3]) it was 100 to 1000 nM.
For the molecule `Cc1ccc(Nc2ncc3c(n2)N(c2cccc(N=S(C)(C)=O)n2)[C@@H]2CC(C)(C)OC[C@]32C)nn1` (single isomer, unassigned) [Example 364], the IC50 against Wee1 kinase domain (Wee1 kinase domain, ADP-Glo) is below 10 nM; in test [1] (A-427, pCDC2 MSD), 100 to 1000 nM.
Turning to `Cc1cc(Nc2ncc3c(n2)N(c2cccc(N=S(C)(C)=O)n2)[C@@H]2CC(C)(C)OC[C@]32C)ccc1N1CCN(C)CC1` (single isomer, unassigned) [Example 106], the half-inhibitory concentration (IC50) against Wee1 kinase domain (Wee1 kinase domain, ADP-Glo) was below 10 nM; in test [1] (A-427, pCDC2 MSD), below 100 nM.
Taken in the same sequence, the figures for `CN1CCC(n2cnc(Nc3ncc4c(n3)N(c3cccc(N=S(C)(C)=O)n3)[C@@H]3CC(C)(C)OC[C@]43C)c2)CC1` (single isomer, unassigned) [Example 205] were below 10 nM and below 100 nM.
On the same counts, the results for `CN1CCN(c2ccc(Nc3ncc4c(n3)N(c3cccc(C(C)(C)O)n3)[C@@H]3CC(C)(C)OC[C@]43C)cc2)CC1` (single isomer, unassigned) [Example 4] are below 10 nM and 100 to 1000 nM.
Taken in the same sequence, the figures for `CN=S1(=O)CCN(c2ccc(Nc3ncc4c(n3)N(c3cccc(CNC)n3)[C@@H]3CC(C)(C)OC[C@]43C)cc2)CC1` (single isomer, unassigned) [Example 65] were below 10 nM and 100 to 1000 nM.
`C[C@H]1COC(=O)N1c1cccc(N2c3nc(Nc4ccc(O[C@H]5CCNC5)nc4)ncc3[C@@]3(C)COC(C)(C)C[C@@H]23)n1` (single isomer, unassigned) [Example 285]: the IC50 was below 10 nM on Wee1 kinase domain (Wee1 kinase domain, ADP-Glo) and 100 to 1000 nM in test [1] (A-427, pCDC2 MSD).
